Results taken from US11692175B2, “Methods for generation of pluripotent and multipotent cells” (The USA, as represented by the Secretary, Dept. of Health …, priority 2012, dated 2023).
Several values for one entry are separate records, joined by “and”; a condition that tells them apart may be missing. Identical values can stand only once.

Experiments:
[1] = tested on: Jurkat T cells; assay: c-Myc mRNA in Jurkat T cells treated with thrombospondin-1 or CD47-binding peptide (real time PCR); format: cell-based, human; details: for c-Myc levels (FIG. 7E): CD47-binding peptide vs control peptide
Protocol: (§1) RNA extraction and Real Time PCR: Total RNA was extracted using TRIzol® reagent (Invitrogen, Rockville, Md.) 24-36 hours after transfection or as indicated. Harvested mouse tissues were frozen in liquid nitrogen or placed into RNA Later™ RNA Stabilization Reagent (Ambion, Life Technologies, Grand Island, N.Y.). Whole organs (lungs, spleen, kidney, testis, skeletal muscle, brain, heart, and liver) were homogenized in TRIzol® reagent, and RNA was isolated, cDNA was prepared using First Maxima First Strand cDNA Synthesis kit for RT-qPCR (Fermentas Life Sciences, Glen Burnie, Md.). Real Time PCR was performed using the primers listed herein as SEQ ID NOs: 3-34, and SYBR Green PCR master reaction mix (AB applied Sciences, Life Technologies, Grand Island, N.Y.) on an MJ Research OPTICON I instrument (Bio-Rad) with the following amplification program: 95° C. for 15 minutes, followed by 40 cycles of 95° C. for 15 seconds, 58° C. for 20 seconds, 72° C. for 25 seconds, and 7° C. for 1 minute. Melting curves were performed for each product from 30° C. to 95° C. reading every 0.5° C. with a 6-second dwell time. The fold changes in mRNA expression were calculated by normalizing to hypoxanthine phosphoribosyltransferase (HPRT1) and TATA-box binding protein associated factor (TAF9) for mouse tissues and endothelial cells, or β-2 microglobulin (B2M) mRNA levels for spleen and isolated splenocytes. B2M was used for normalization of mRNA levels in human cells. Note that the total RNA yield per cell was higher for all CD47-null and CD47-deficient cells and tissues as compared to WT.
Modulation of stem cell transcription factors by thrombospondin-1: Jurkat and JinB8 cells were centrifuged and re-suspended in RPMI+1% FBS at 10^6 cells/ml. Cells were plated in 12 well plates and treated with 1 μg/ml (2.2 nM) TSP1 using the indicated times and concentrations, and total RNA was isolated using TRIzol® reagent.

[2] = tested on: HUVEC; assay: MTS proliferation assay of treated HUVEC; format: cell-based, human; details: 6 days post-treatment
Protocol: Cell proliferation assays: Equal numbers of mouse lung endothelial cells from WT and CD47 (Passage 1) were plated in 96 well plates using RPMI+1% FBS. After 72 hours, net cell proliferation was assessed by the increase in formazan absorbance versus controls assessed at time 0 using Cell Titer 96R aqueous MTS kit (Promega, Madison, Wis.). DNA synthesis was measured using a BrdU Assay (EMD Biosciences, Billerica, Mass.).
Proliferative capacities of the treated HUVEC (CD47 morpholino, 7N3 peptide, or 604 control peptide) were assessed using MTS assays.

[3] = tested on: WT Jurkat T cells; assay: QPCR analysis of c-Myc mRNA in WT Jurkat T cells treated with CD47 binding peptides; format: cell-based, human; details: for c-Myc expression (FIG. 21B): 1 μM or 10 μM
Protocol: FIGS. 21A and B are a pair of graphs showing QPCR analysis of c-Myc mRNA expression. WT Jurkat T cells were treated with the CD47 binding peptide 459 (also known as peptide 4N1) or control peptide 761 at 1 μM or 0.1 μM (FIG. 21A). WT Jurkat T cells were also treated with the CD47-binding peptide 7N3 or the control peptide 604 at 1 μm or 10 μM (FIG. 21B).
as §1

[4] = tested on: TSP1 null cells; assay: Sustained proliferation of TSP1 null murine lung endothelial cells; format: cell-based, mouse; details: relative to WT cells
Source text: Cell culture and reagents: Thrombospondin-1 null (Lawler et al., J Clin Invest 101, 982-992, 1998) CD47 null mice (Lindberg et al., Science 274, 795-798, 1996) extensively back-crossed onto a C57Bl/6J background and WT mice were maintained in a pathogen-free environment according to protocols approved by the NCI Animal Care and Use Committee. Mouse lung endothelial cells were isolated and their purity verified as described previously (Zhou et al., Oncogene 25, 536-545, 2006). These conditions were previously documented to reproducibly yield >95% pure endothelial cells at passage two (CD31+, smooth muscle actin-). Mouse lung endothelial cells were cultured at 37° C. with 5% CO2 using Endothelial Growth Medium-2 (EGM2) (Thermo Scientific Fisher. Inc., Waltham, Mass.). Cell populations from mouse spleens were separated using the Pan T cell Isolation (130-095-130), CD4 (L3T4) (130-049-201), CD8a (Ly-2) (130-049-401) CD11b (130-049-601), CD19 microbead kits (130-052-201) (MACS, Miltenyi Biotech Germany).
(§2) Human umbilical vein endothelial cells (HUVEC), which express CD47, normally become senescent with repeated passage in tissue culture (FIG. 16A).

[5] = tested on: HUVECs; assay: Real-time PCR of HUVECs treated for three weeks with neural medium and 7N3 peptide or B6H12 antibody; format: cell-based, human
Protocol: as §1, with “WT. […]” for “WT.”

[6] = tested on: HUVEC; assay: Sustained proliferation / self-renewal of HUVEC in continuous culture; format: cell-based, human; details: 7N3 10 μM; B6H12 1 μg/ml
Source text: as §2
Therefore, antisense suppression of CD47 is sufficient to induce reprogramming of primary endothelial cells of a mesodermal lineage into an ectodermal lineage.

[7] = tested on: JinB8 cells; assay: c-Myc mRNA in CD47-deficient JinB8 cells treated with thrombospondin-1; format: cell-based, human; details: Jurkat cells lacking CD47; at 24 hours
Protocol: as §1, with “B2M was used for normalization of mRNA levels in human cells. Note that the total RNA yield per cell was higher for all CD47-null and CD47-deficient cells and tissues as compared to WT.” left out

[8] = tested on: JinB8 cells re-expressing CD47; assay: c-Myc expression in JinB8 cells re-expressing CD47 treated with thrombospondin-1; format: cell-based, human; details: CD47 re-expressed in JinB8 cells
Protocol: JINB8 cells were transfected with CD47-V5 construct using Amaxa™ Nucleofector™ (Lonza) non-viral transfection technology. The transfection efficiency was determined by flow Cytometry. The CD47-V5 transfected cells were purified using magnetic beads bound with human CD47 antibody (B6H12). The transfected cells were loaded onto MACS column which was placed in the magnetic field of a MACS® separator (Miltenyi Biotec). The magnetic bead labeled CD47^+ cells were retained on the column. The unlabeled cells ran through and were depleted from CD47^+ cells. After removal of the column, the CD47^+ cells bound to magnetic beads were eluted. The pure population of CD47^+ cells was stably cultured using G418 (250 μg/ml). The pure population of CD47^+ and Jurkat cells were centrifuged and re-suspended in RPMI with 1% FBS at 10^6 cells/ml. Cells were plated in 12 well plates and treated with 1 μg/ml (2.2 nM) thrombospondin-1, and total RNA was isolated using TRIzol®. The relative gene expression of c-MYC was measured using GAPDH as a control.

[9] = tested on: Human rTEC; assay: RT-PCR of self-renewal genes in human renal tubular epithelial cells; format: cell-based
Protocol: FIG. 25 is a series of graphs showing that blockade of CD47 elevates self-renewal transcription factors in human renal cells. Human rTEC were treated with TSp1 (2.2 nmol/L)±a CD47 monoclonal Ab (clone B6H12, 1 μg/ml) and RT-PCR performed for the indicated targets (top, c-Myc; middle. Sox2; bottom, Klf4). Results are the mean (±S.E.M.) of three separate experiments.
TSP1 inhibits self-renewal signals in primary human renal tubular epithelial cells, and CD47 blockade therapy elevates self renewal genes in human renal cells: It is not clear what role the TSP1-CD47 signal cascade played on self-renewal signaling in specific renal cell types. We wanted to confirm in human cells that activation of CD47 inhibits self-renewal genes. Renal tubular epithelial cells (rTEC) are a primary source of injury in the kidney. Human rTEC were treated with a low concentration of exogenous TSP1 (2.2 nmol/L) and found suppression of self-renewal genes including cMyc and Sox2 and Klf4 (FIG. 25). […] Thus, in human renal cells CD47 blockade increases the stem cell-pluripotent capacity of renal cells.

[10] = real-time PCR, HUVECs three weeks in neural medium, two values per treatment

FIRGGMYEGKK (Synthetic peptide 604) [compound 604]
c-Myc levels (FIG. 7E) [1]: inactive | proliferation (MTS) [2]: decreased proliferation | c-Myc expression (FIG. 21B) [3]: did not

FIRVVMYEGKK (Synthetic peptide 7N3)
c-Myc levels (FIG. 7E) [1]: suppression | proliferation (MTS) [2]: enhanced proliferation | c-Myc expression (FIG. 21B) [3]: more dramatic increase | proliferative response [4]: their response was less than the WT cells | expression of mRNAs encoding c-Myc and other stem cell transcription factors (Sox2, Klf4, Oct4) and nestin ([5]; EBM serum free (neural basal) medium for 3 weeks, in words): high expression | Oct4 C(t) [5, 10]: 34.48 and 34 | c-Myc C(t) [5, 10]: 30.19 and 18.49 | klf4 C(t) [5, 10]: 26.31 and 26.17 | nestin C(t) [5, 10]: 31.6104 and 31.32 | sox2 C(t) [5, 10]: 28.09 and 29 | sustained proliferation [6]: dramatically increased

RFYVVMWK (Synthetic peptide - 4N1) [compound 459]
c-Myc mRNA expression (FIG. 21A) ([3]; 0.1 μM, at 72 hours, relative to control peptide 761): significantly increased

TSP1: Human TSP1 purified from the supernatant of thrombin-activated platelets; CD47 ligand
c-Myc levels, time course ([1]; 2.2 nM thrombospondin-1): transiently induced but then strongly inhibited | c-MYC expression (FIG. 14D) ([1]; Jurkat cells): reduces c-MYC expression | concentration sufficient to inhibit c-Myc expression ([1]; at 24 hours): Picomolar concentrations | c-Myc mRNA levels [7]: not significantly inhibited | c-Myc expression [8]: reduces c-MYC expression | c-Myc expression ([8]; listed as thrombospondin-1): restored the ability of thrombospondin-1 to inhibit c-Myc expression | expression of self-renewal transcription genes ([9]; TSP1 2.2 nM, low passage cells): decreased expression of self-renewal transcription genes | Klf4 expression ([9]; TSP1 2.2 nmol/L, B6H12 1 μg/ml): suppression | Sox2 expression ([9]; TSP1 2.2 nmol/L, B6H12 1 μg/ml): suppression | cMyc expression ([9]; TSP1 2.2 nmol/L, B6H12 1 μg/ml): suppression
